{"source": "paper PMC5694482", "about": "(Frontiers in Pharmacology, 2017)", "key": {"H3R [1]": {"biological_target": "T1, H3R (Homo sapiens, UniProt Q9Y5N1)", "T1 sequence (Q9Y5N1 whole entry, species assumed)": "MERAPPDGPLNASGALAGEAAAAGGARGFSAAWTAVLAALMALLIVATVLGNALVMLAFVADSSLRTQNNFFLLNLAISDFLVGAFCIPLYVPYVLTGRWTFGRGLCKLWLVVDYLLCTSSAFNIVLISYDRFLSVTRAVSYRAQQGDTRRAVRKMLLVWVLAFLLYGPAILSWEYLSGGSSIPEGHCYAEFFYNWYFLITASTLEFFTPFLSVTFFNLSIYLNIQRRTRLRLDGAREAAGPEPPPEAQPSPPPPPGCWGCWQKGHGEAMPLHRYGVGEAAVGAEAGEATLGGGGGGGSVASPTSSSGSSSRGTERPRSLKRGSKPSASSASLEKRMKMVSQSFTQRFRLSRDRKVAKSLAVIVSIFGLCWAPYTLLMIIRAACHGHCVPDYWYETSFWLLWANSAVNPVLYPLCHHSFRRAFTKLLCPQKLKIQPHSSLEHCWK", "conditions": "for SI H4R/H3R (Ki): selectivity index, ratio of Ki H4R/H3R; for Ki: H3R pKi ± SEM"}, "H4R [2]": {"biological_target": "T2, H4R (Homo sapiens, UniProt Q9H3N8)", "T2 construct": "expressed in transfected cells; host or cells: HEK293T", "T2 sequence (Q9H3N8 whole entry, species assumed)": "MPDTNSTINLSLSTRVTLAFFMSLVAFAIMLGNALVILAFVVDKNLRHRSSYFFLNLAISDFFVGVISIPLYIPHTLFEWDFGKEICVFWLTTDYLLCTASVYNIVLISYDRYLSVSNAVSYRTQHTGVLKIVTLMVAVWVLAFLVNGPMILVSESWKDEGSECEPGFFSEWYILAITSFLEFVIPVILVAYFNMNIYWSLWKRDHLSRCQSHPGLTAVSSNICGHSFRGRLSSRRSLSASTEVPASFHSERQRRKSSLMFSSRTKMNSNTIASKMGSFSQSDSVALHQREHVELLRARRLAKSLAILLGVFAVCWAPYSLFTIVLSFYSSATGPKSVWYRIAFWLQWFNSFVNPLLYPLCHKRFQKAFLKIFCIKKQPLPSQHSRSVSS", "experiment": "Competition binding assay with [3H]-histamine in HEK293T cells transiently expressing H4R", "conditions": "for binding to H4R in initial screening (in words): screening format, Supplementary Figure S2"}, "H4R [3]": {"biological_target": "T2, H4R", "experiment": "G protein (Gi1) activation BRET assay, H4R, agonist and antagonist mode", "type": "cell-based", "conditions": "for Gi activation at H4R (agonist mode): BRET Gi1 biosensor, up to 10,000 nM; for block of histamine activity at H4R (antagonist mode): preincubation 30 min at 10,000 nM before histamine"}, "mouse asthma model [4]": {"test_system": "mouse asthma model", "experiment": "OVA-induced allergic asthma in mice, cell counts in bronchoalveolar lavage", "type": "in vivo, Male C57Bl/6 mice", "conditions": "3 and 5 mg/kg intraperitoneally 30 min before antigen challenge", "procedure": "Male C57Bl/6 mice weighing 20–25 g, 6–8 weeks old, from our own animal facilities were housed in a room with a 12 h light–dark cycle with water and food ad libitum. Animal care and research protocols were in accordance with the principles and guidelines adopted by the Brazilian College of Animal Experimentation (COBEA) and this project was approved by the Ethical Committee for Animal Research of the Federal University of São Paulo (CEUA 1666/99).\nMice (n = 5 per group) were sensitized on days 0 and 7 by an intraperitoneal injection of a mixture containing […] of ovalbumin (OVA; Grade V, Sigma–Aldrich, United States) and 1 mg of Al(OH)3 in PBS (a total volume of 0.2 ml). Mice were challenged by exposure to an aerosol of OVA generated by an ultrasonic nebulizer (ICEL US-800, SP, Brazil) delivering particles of […] diameter at approximately 0.75 cc/min for 20 min at days 14 and 21. The concentration of OVA in the nebulizer was 2.5% w/v in PBS. The control group consisted of animals immunized as previously described and challenged two times with PBS solution. Compounds 1d and 1e were administered intraperitoneally in two different dosages (5 and 3 mg/kg) to the test groups 30 min before the antigen challenge. Sensitized and control groups were used to assess the anti-inflammatory activity ([Corrêa et al., 2017]).\nMice were euthanized with intraperitoneal ketamine and xylazine (100 and 10 mg/kg, respectively; Agibrands do Brazil, São Paulo, São Paulo, Brazil), 24 h after exposure to the last aerosol challenge. A tracheal cannula was inserted via a mid cervical incision, and the airways were washed twice with 1 ml of phosphate-buffered saline (PBS, pH 7.4 at 4°C).\nThe bronchoalveolar lavage fluid was centrifuged at 170 × g for 10 min at 4°C, the supernatant was removed, and the cell pellet was re-suspended in 1 ml of PBS. One volume of a solution containing 0.5% crystal violet dissolved in 30% acetic acid was added to nine volumes of the cell suspension. The total number of cells was determined by counting in a hematocytometer. […]"}, "mouse asthma model [5]": {"test_system": "mouse asthma model", "conditions": "cited from earlier work"}, "H3R [6]": {"biological_target": "T1, H3R", "experiment": "G protein (Gi1) activation BRET assay, H3R, agonist and antagonist mode", "type": "cell-based", "design": "expressed in transfected cells; host or cells: HEK293T", "conditions": "BRET Gi1 biosensor, up to 10,000 nM"}, "[7]": {"conditions": "displacement of 1.15 nM [3H]-histamine, HEK293T cells, Cheng-Prusoff"}, "[8]": {"conditions": "displacement of 1.15 nM [3H]-histamine, HEK293T cells, Cheng-Prusoff, read-out: H4R pKi ± SEM (converted)"}}, "note": "Where “and” joins values, the source holds several entries; their conditions need not be identical. Equal values may be shown once. Entries after “also recorded” stand apart in the source; their conditions may differ. Read-outs that look alike come from different tables or passages of the source.", "data": [{"smiles": "C=CCN1CCN(CC2Cc3ccccc3O2)CC1", "note": "(centres unmarked) [1c, 1-allyl-4-[(2,3-dihydro-1-benzofuran-2-yl)methyl]piperazine]", "values": [{"measurement": "H3R pKi ± SEM", "setting": "H3R [1]; [7]", "result": "6.40 ± 0.21"}, {"measurement": "SI H4R/H3R (Ki)", "setting": "H3R [1]", "result": ">25"}, {"measurement": "Ki", "setting": "H4R [2]; [8]", "result": "> 10000", "unit": "nM"}]}, {"smiles": "CN1CCN(CC2Cc3cc(Cl)ccc3O2)CC1", "note": "(centres unmarked) [1e, 1-[(5-chloro-2,3-dihydro-1-benzofuran-2-yl)methyl]-4-methylpiperazine]", "values": [{"measurement": "Gi activation at H4R (agonist mode)", "setting": "H4R [3]", "result": "did not trigger Gi activation"}, {"measurement": "block of histamine activity at H4R (antagonist mode)", "setting": "H4R [3]", "result": "fully blocked histamine agonistic effect"}, {"measurement": "Ki", "setting": "H3R [1]; [7]", "result": "~851 nM and 851 nM"}, {"measurement": "SI H4R/H3R (Ki)", "setting": "H3R [1]", "result": 1.1}, {"measurement": "effect on total inflammatory cell and eosinophil counts in bronchoalveolar lavage", "setting": "mouse asthma model [4]", "result": "low counts in both doses; also recorded: highly effective at low doses"}, {"measurement": "effect on total inflammatory cell and eosinophil counts in bronchoalveolar lavage", "setting": "mouse asthma model [4]; listed as LINS01007", "result": "better anti-inflammatory activity"}, {"measurement": "increase in affinity for H4R by insertion of the chlorine atom", "setting": "H4R [2]; 1e against the non-substituted molecule", "result": "more than 10 fold"}, {"measurement": "Ki", "setting": "H4R [2]; [8]", "result": 871, "unit": "nM"}, {"measurement": "binding to H4R in initial screening (in words)", "setting": "H4R [2]", "result": "considerable binding to H4R"}]}, {"smiles": "CN1CCN(C(=O)c2cc3cc(Cl)ccc3[nH]2)CC1", "note": "[JNJ-7777120, reference compound]", "values": [{"measurement": "effect on inflammatory infiltrations in experimental murine asthma model", "setting": "mouse asthma model [5]; ref Neumann et al., 2013", "result": "capable of reducing the inflammatory infiltrations"}]}, {"smiles": "CN1CCN(CC2Cc3ccccc3O2)CC1", "note": "(centres unmarked) [1b, 1-[(2,3-dihydro-1-benzofuran-2-yl)methyl]-4-methylpiperazine]", "values": [{"measurement": "Ki", "setting": "H3R [1]; [7]", "result": 2690, "unit": "nM"}, {"measurement": "Ki", "setting": "H4R [2]; [8]", "result": "> 10000", "unit": "nM"}]}, {"smiles": "NCCc1c[nH]cn1", "note": "[Histamine, reference compound]", "values": [{"measurement": "Gi activation at H4R (agonist mode)", "setting": "H4R [3]", "result": "poor stimulant of Gi"}, {"measurement": "Gi activation at H3R (agonist mode)", "setting": "H3R [6]", "result": "strong activation signal"}]}, {"smiles": "c1ccc2c(c1)CC(CN1CCNCC1)O2", "note": "(centres unmarked) [1a, 1-[(2,3-Dihydro-1-benzofuran-2-yl)methyl]piperazine]", "values": [{"measurement": "affinity for H3R (in words)", "setting": "H3R [1]", "result": "did not show appreciable affinity"}, {"measurement": "Ki", "setting": "H3R [1]; [7]", "result": "> 10000", "unit": "nM"}, {"measurement": "Ki", "setting": "H4R [2]; [8]", "result": "> 10000", "unit": "nM"}]}, {"smiles": "Cc1ccc2c(c1)CC(CN1CCN(C)CC1)O2", "note": "(centres unmarked) [1f, 1-methyl-4-[(5-methyl-2,3-dihydro-1-benzofuran-2-yl)methyl]piperazine]", "values": [{"measurement": "Gi activation at H4R (agonist mode)", "setting": "H4R [3]", "result": "weak agonistic effect in high concentrations; also recorded: moderate agonistic effect"}, {"measurement": "block of histamine activity at H4R (antagonist mode)", "setting": "H4R [3]", "result": "only partially blocked histamine activity; also recorded: only partially reduced histamine effect"}, {"measurement": "Ki", "setting": "H3R [1]; [7]", "result": 708, "unit": "nM"}, {"measurement": "SI H4R/H3R (Ki)", "setting": "H3R [1]", "result": 14}, {"measurement": "Ki", "setting": "H4R [2]; read-out: H4R Ki / binding affinity", "result": "~10000", "unit": "nM"}, {"measurement": "binding to H4R in initial screening (in words)", "setting": "H4R [2]", "result": "considerable binding to H4R"}]}, {"smiles": "COc1ccc2c(c1)CC(CN1CCN(C)CC1)O2", "note": "(centres unmarked) [1g, 1-methyl-4-[(5-methoxy-2,3-dihydro-1-benzofuran-2-yl)methyl]piperazine]", "values": [{"measurement": "Ki", "setting": "H3R [1]; [7]", "result": 871, "unit": "nM"}, {"measurement": "SI H4R/H3R (Ki)", "setting": "H3R [1]", "result": ">11"}, {"measurement": "Ki", "setting": "H4R [2]; [8]", "result": "> 10000", "unit": "nM"}]}, {"smiles": "CN1CCN(CC2Cc3cc(C(C)(C)C)ccc3O2)CC1", "note": "(centres unmarked) [1h, 1-methyl-4-[(5-tert-butyl-2,3-dihydro-1-benzofuran-2-yl)methyl]piperazine]", "values": [{"measurement": "Ki", "setting": "H3R [1]; [7]", "result": "~851 nM and 851 nM"}, {"measurement": "SI H4R/H3R (Ki)", "setting": "H3R [1]", "result": "> 11"}, {"measurement": "Ki", "setting": "H4R [2]; [8]", "result": "> 10000", "unit": "nM"}]}, {"smiles": "NC(=NCc1ccc(Cl)cc1)SCCCc1cnc[nH]1", "note": "[Clobenpropit]", "values": [{"measurement": "Gi activation at H3R (agonist mode)", "setting": "H3R [6]", "result": "unable to trigger Gi activation"}]}, {"smiles": "c1ccc(N2CCN(CC3Cc4ccccc4O3)CC2)cc1", "note": "(centres unmarked) [1d, 1-[(2,3-dihydro-1-benzofuran-2-yl)methyl]-4-phenyl-piperazine]", "values": [{"measurement": "affinity for H3R (in words)", "setting": "H3R [1]", "result": "did not show appreciable affinity"}, {"measurement": "Ki", "setting": "H3R [1]; [7]", "result": "> 10000", "unit": "nM"}, {"measurement": "effect on total inflammatory cell and eosinophil counts in bronchoalveolar lavage", "setting": "mouse asthma model [4]", "result": "dose-dependent effect"}, {"measurement": "anti-inflammatory activity in mouse asthma model", "setting": "mouse asthma model [5]; earlier report, ref Corrêa et al., 2017", "result": "anti-inflammatory activity only at 5 mg/kg dose"}, {"measurement": "Ki", "setting": "H4R [2]; [8]", "result": "> 10000", "unit": "nM"}]}, {"smiles": "Clc1ccc2c(c1)CC(CN1CCN(c3ccccc3)CC1)O2", "note": "(centres unmarked) [1i, 1-[(5-chloro-2,3-dihydro-1-benzofuran-2-yl)methyl]-4-phenylpiperazine]", "values": [{"measurement": "affinity for H3R (in words)", "setting": "H3R [1]", "result": "did not show appreciable affinity"}, {"measurement": "Ki", "setting": "H3R [1]; [7]", "result": "> 10000", "unit": "nM"}, {"measurement": "Ki", "setting": "H4R [2]; [8]", "result": "> 10000", "unit": "nM"}]}]}
